The values below come from paper PMC10934653, “Identification of Hypoglycemic Glycolipids from Ipomoea murucoides by Affinity-Directed Fractionation, In Vitro, In Silico and Dynamic Light Scattering Analysis” (Plants, 2024).

The structures appear in SMILES notation. Converted amounts (≈) assume the structure as drawn.

For this assay, the target named is T1, hepatic glucose-6-phosphatase (G6Pase).
T1 construct: gene G6pc1; native, microsomal fraction from livers of starved Wistar rats; not purified; with Glucose-6-phosphate exchanger SLC37A4
The assay is described as follows: colorimetric phosphate release assay, rat liver microsomes. Format: biochemical. As to conditions: 80 mM glucose-6-phosphate, 40 mM imidazole, 250 mM sucrose, pH 7, 20 °C, 20 min; positive control. A general note: Liver microsomes are vesicles of endoplasmic reticulum, rich in cytochrome P450 enzymes.

The IC50 is the midpoint of a concentration-inhibition curve. Lower therefore signals greater potency in that assay. For the compound `O=C(/C=C/c1ccc(O)c(O)c1)O[C@@H]1C[C@](O)(C(=O)O)C[C@@H](O)[C@H]1O` [chlorogenic acid], the IC50 stood at 122.5 µg/mL (≈ 346 µM).
